row,Compound,melting point
1,Oc1ccc(-c2nc(-c3ccc(Br)cc3)nc(-c3ccc(O)cc3O)n2)c(O)c1,222 to 224 °C
2,COCCN1CCc2cc(Nc3ncc(Cl)c(NC4(C(=O)NCC#N)CC4)n3)c(OC)cc2CC1,187 to 189 °C
3,O=C(c1ccc(Cl)c(Cl)c1)N1CCCC(c2ccc(Br)s2)=N1,138 to 140 °C
4,CC1(C)CCC(C)(C)c2cc(-c3nc4ccc(C(=O)O)cc4s3)ccc21,292 to 293 °C
5,CCC1C(C)=NN=C(c2ccc(OC)c(OC)c2)c2cc(C)ccc21 (configuration not stated),156 to 158 °C
6,CCN1C(=O)CN=C(c2ccccc2F)c2cc(C(C)=NO)ccc21,236 to 238 °C
7,CCOC(=O)C(CBr)=C1CC(=O)CCC1=N,170 to 175 °C
8,COc1ccc(CC2=NC(C)(C)CO2)cc1NC(=O)C(C)(C)CCCOc1cc(C)ccc1C,79 to 80 °C
9,Cc1ccc(NC(=O)c2cccc(C(F)(F)F)c2)cc1-c1ccc2ccncc2c1,148 to 152 °C
10,Nc1cc(C=O)nc(CC2CC2)c1F,99 to 100 °C
11,CCOc1cc2c(Nc3ccc(Sc4nccn4C)c(Cl)c3)c(C#N)cnc2cc1F,251 to 254 °C
12,CC(C)(C)c1cc(-c2ccc(NC(=O)COCC(=O)O)cc2)cc(C(C)(C)C)c1O,183 to 184 °C
13,CS(=O)(=O)c1ccc(-c2sc(COc3ccccc3Cl)nc2-c2ccc(F)cc2)cc1,189 to 191 °C
14,c1n[nH]nc1C12CCCN(CC1)C2 (configuration not stated),70 to 75 °C
15,COCCOc1ccc(/C=C/C(=O)O)c(OCC2CCCO2)c1 (configuration not stated),106 to 108 °C
16,O=C1NCCCCC1(Br)Br,156 to 159 °C
17,CNC(=O)c1c(N)n(C2CCCC2)c2nc(C#CC(C)(O)CO)ccc2c1=O (configuration not stated),210 °C
18,Cc1cccc(NC(=O)C=Cc2cn(C)nc2[N+](=O)[O-])n1,191 to 193 °C
19,CC(C)Oc1ccc(CCCOc2cc(CCC(=O)O)n(Cc3ccccc3)n2)c(Oc2ncc(C(F)(F)F)cc2Cl)c1,99 to 100 °C
20,O=C1CCC(c2ccccc2)=NN1c1cc(-c2ccnc(Nc3cccc(Cl)c3)n2)ccn1,144 to 146 °C
21,CCOC(=O)C(=CNC1CC1)C(=O)c1c(F)c(F)c(F)c(F)c1N(C)C,122 to 124 °C
22,COCCOc1c(F)c(Oc2ccc(S(C)(=O)=O)nc2)cc2cc(C3=NCC(CC(N)=O)S3)[nH]c12 (configuration not stated),143 to 144 °C
23,CCS(=O)(=O)NNC(=O)NNS(=O)(=O)CC,195 °C
24,Cc1oc(-c2ccc(C(F)(F)F)cc2)nc1CCOc1ccc(CN(O)C(N)=O)cc1,156 to 157 °C
25,CC1(C)OC(c2ccc(S(N)(=O)=O)cc2)=C(c2ccc(F)cc2)C1=O,162 to 163 °C

row,Compound,melting point
1,CCCC(=O)n1ccc(-c2ccc(C(=O)N3Cc4cccn4Cc4ccccc43)cc2)n1,105 to 110 °C
2,CN1C[C@@H]2c3cc(Cl)ccc3Oc3ccccc3[C@H]2C1=O (relative stereo),148 °C
3,O=C1OC(=O)c2cc3ccc(C(F)(F)F)cc3c3cccc1c23,310 to 312 °C
4,CCN(CC)C(=O)C=Cc1cccc([N+](=O)[O-])c1C,74.3 °C
5,Nc1ccc(N=Nc2ccccc2)cc1Cl,152 to 153 °C
6,CC(C(=O)O)=C(NC(=O)C(F)(F)F)c1ccccc1,140 °C
7,COc1ccc(N2CC(O)c3cc(Cl)sc3S2(=O)=O)cc1 (configuration not stated),127 to 132 °C
8,Cc1cc2c(-c3ccccc3)noc2c2c1OC(C(=O)O)C2 (configuration not stated),210 to 213 °C
9,CCCn1c(=O)c2[nH]c(C(C)(C)C)nc2n(CCNC(C)=O)c1=O,194 to 195 °C
10,O=c1[nH]c(=O)n([C@H]2CO[C@H](CO)O2)cc1/C=C/Cl,101 to 102 °C
11,CCC1(COC(=O)C(C)(C)C)COC(=O)C(CC)(CC)N1 (configuration not stated),37 to 41 °C
12,O=C1c2ccccc2CN1CCOc1ccc(CO)cc1,106 to 107 °C
13,O=c1ccc(C(F)(F)F)cn1-c1ccc([N+](=O)[O-])cc1Cl,218 °C
14,CCC(Br)=C(CC)S(=O)(=O)CBr,96 to 97 °C
15,CC(C)(O)[C@H](Cc1ccccc1)NC(=O)C(Cl)(Cl)Cl,88 °C
16,CCOC(=O)C1=C(C)NC(COC(C)=O)=C(C(=O)OCC)C1c1ccccc1[N+](=O)[O-] (configuration not stated),89 to 90 °C
17,CC(C)(C(=O)O)n1nc2ccc(NCCCN3CCC(OC(c4ccccc4)c4ccccc4)CC3)nn2c1=O,181 to 185 °C
18,NC(=O)c1nc(-c2cccc(O)c2)nc2c1[nH]c(=O)n2-c1ccccc1Cl,360 to 364 °C
19,COC(=O)Cc1cccc(CC(=O)OC)c1[N+](=O)[O-],144 to 145 °C
20,C=C1c2c(ccc(OC(C)=O)c2OC(C)=O)C(=O)N2CCCCC12 (configuration not stated),129 to 132 °C
21,Cc1ccc(-c2nccc3c(CC(=O)O)cccc23)cc1,223 to 224 °C
22,CC(=O)NCC1OC(=O)N2c3ccc(-c4ccccc4)cc3CC12 (configuration not stated),181 to 183 °C
23,CC1(C)CC(=O)C(C)(C)c2cc(/C=C/c3ccc(C(=O)O)cc3)c(Cn3cccn3)cc21,265 to 266 °C
24,Oc1ccc2c(c1)CCCC2n1cc[nH]c1=S (configuration not stated),213 to 215 °C
25,COC(=O)c1nc2n(n1)-c1ccc(Cl)cc1N(c1ccccc1)C2,190 to 194 °C

row,Compound,melting point
1,N=C(N)c1ccc(NC(=O)NC(=O)c2ccc(OCC(=O)O)cc2)cc1,285 to 288 °C
2,CC(C)[C@H](CC(N)=O)NC(=O)OCc1ccccc1,171 to 172 °C
3,CCOC(=O)c1cnn(C)c1C(=O)Nc1ccn2nc(N(C)C)nc2c1,193 to 195 °C
4,CC(C)CCNC1=NS(=O)(=O)c2sc(Cl)cc2N1,230 to 232 °C
5,CC(C)(C)c1ccc(C(=O)CCCN2CCC(C3(O)c4ccccc4CCc4ccccc43)CC2)cc1,132 to 134 °C
6,CCCn1c(CCOC)nc2c(N)nc3cc(Oc4ccc(S(C)(=O)=O)cc4)ccc3c21,210 to 212 °C
7,CCCCOc1nc2cccc(C(=O)OC)c2n1Cc1ccccc1-c1ccccc1-c1nnn[nH]1,146 to 148 °C
8,COc1cc(Nc2nc3cccc(-c4cccnc4)c3o2)cc(OC)c1OC,165 to 170 °C
9,CCC(O)(CC)c1ccc(-c2ccc(OCc3ccc(CO)c(CO)c3)cc2)c(C)c1,97 °C
10,O=C1Nc2cccnc2N(C(=O)CN2CCCCC2CN2CCOCC2)c2ccccc21 (configuration not stated),203 to 205 °C
11,O=C(CN1C(=O)C2(COc3cc(Cl)ccc32)c2ccccc21)Nc1ccccc1F (configuration not stated),70 to 75 °C
12,O=C(O)[C@@H]1CCc2cc(F)ccc2O1,99.7 °C
13,O=Cc1cccc(-c2cc3c4c(ccn4C(=O)CNC3)c2)c1,192 to 194 °C
14,CCCCc1nc(C(O)C(C)C)c(C(N)=O)n1Cc1ccc(-c2ccccc2-c2nnn[nH]2)cc1 (configuration not stated),155 to 157 °C
15,COC(=O)c1oc2cc(OCc3nc(-c4ccccc4)oc3C)ccc2c1-c1ccccc1,139 to 140 °C
16,Cc1ccc(NC(=O)c2ccc(C#N)cc2)cc1NC(=O)c1ccc(O)cc1,297 to 299 °C
17,CC(C)(C)OC(=O)Nc1cc(N2CCC3(CC2)OCCO3)c(-c2ccccc2F)cc1[N+](=O)[O-],164 °C
18,COc1ccc(CNC(=O)C(OC)OC)cc1OC,60 °C
19,CC1NC2(c3ccccc3)c3ccccc3C(=O)N2C1C (configuration not stated),162 to 164 °C
20,NC(=O)c1ccc(F)c2c1CC(NCCCc1c[nH]c3ccc(Cl)cc13)CO2 (configuration not stated),218 to 221 °C
21,O=Cc1ccc(OCc2ccc3ccccc3n2)cc1,69 to 72 °C
22,CN(C)C(=N[N+](=O)[O-])NCc1cnc(Cl)s1,155 to 160 °C
23,COc1cc(C#Cc2ccccc2)c(OC)cc1C#Cc1ccccc1,172 to 174 °C
24,CCCC=Cc1c(C(C)C)nc(C(C)C)c(CO)c1-c1ccc(S(C)=O)cc1 (configuration not stated),133 to 135 °C
25,CCCCC(C(N)=O)n1ccnc1 (configuration not stated),90 to 91 °C

row,Compound,melting point
1,CC(C)(C)c1ccc([N+]([O-])=S)cc1,40 to 43 °C
2,O=C(OCC(=O)c1ccc(C(F)(F)F)cc1)Oc1ccccc1,134 to 135 °C
3,COc1cc(CO)ccc1OCc1cn(-c2ccccn2)nc1C,135 to 136 °C
4,CC(C)(NC(=O)OCc1ccccc1)C(=O)NC(c1ccccc1)c1ccccc1,157 to 159 °C
5,C=C(C)C(=O)OCCOc1ccc(N=Nc2ccc(C#N)cc2)cc1C#N,110 °C
6,NC(=O)c1ccccc1N=C(NC(=O)c1ccccc1)NC(=O)c1ccccc1,276 to 278 °C
7,Cc1ccc(C(=O)Nc2c(NC(=O)CN3CCCCC3)ccc3c2C(=O)c2ccccc2C3=O)cc1,213 to 214 °C
8,O=S(=O)(NCC(O)(Cn1cncn1)c1ccc(F)cc1F)c1ccc(C(F)(F)F)cc1 (configuration not stated),161 to 162 °C
9,CC(=O)OCC(=O)C1C(C)CC2C3C=C(Cl)C4=CC(=O)C=CC4(C)C3C(O)CC21C (configuration not stated),192 °C
10,COC=C(C(=O)OC)c1ccccc1CON=C(C)C(=NOC)c1ccc(CCc2ccc(Cl)cc2Cl)cc1,112 to 114 °C
11,COc1ccc(C(=O)N2c3ccccc3C(N3CCSc4ccccc43)=CC2C)cc1OC (configuration not stated),166 to 168 °C
12,Cc1cccc(N2CCN(CCC3CN(C)C(=O)O3)CC2)c1 (configuration not stated),72 to 74 °C
13,Cc1ccc(-c2ccc(S(=O)(=O)N3c4ccccc4CC3C(=O)NCCOc3ccc(CC(=O)O)cc3)cc2C(F)(F)F)cc1 (configuration not stated),92 °C
14,CC(C)CCOc1c(-c2ccc(S(N)(=O)=O)cc2)cnn(-c2cccc(Cl)c2)c1=O,137 to 139 °C
15,CCOC(=O)c1ncc2[nH]c3c([N+](=O)[O-])cccc3c2n1,318 to 325 °C
16,O=C1Cc2c(ccc3c2OC(CNCc2ccccc2)CC3)N1 (configuration not stated),128 °C
17,NC1CCc2ccccc2N(CC(=O)O)C1=O (configuration not stated),147 to 150 °C
18,C[C@@H](Nc1c(-c2c(F)cc(F)cc2F)c(Cl)nc2ncnn12)C(C)(C)C,169 to 171 °C
19,CN1CCN(c2cc(Cl)cc3c2c(=O)n(Cc2ccc(O)cc2)c(=O)n3Cc2ccccc2)CC1,138 to 140 °C
20,O=C(N[C@H](Cc1ccccc1)C(=O)O)OCc1ccc2oc(Cc3ccccc3)cc2c1,201 to 204 °C
21,O=C1CCc2cc(NCC(=O)N3CCC(Cc4ccc(F)cc4)CC3)ccc2N1,197 to 200 °C
22,CS(=O)(=O)c1ccc(CN2C(=O)C3(COc4cc5c(cc43)OCO5)c3ccccc32)o1 (configuration not stated),177 to 179 °C

# Source: a melting point compilation (Tetko et al.; mined from patent text by program, amines drawn as free bases though some values may be those of a salt)
